Data as given in the kinase profiling compilation of Christmann-Franck et al. (2016).

Experiments:
Experiment in all cases: Caliper, Mobility shift assay off-chip
[1] = biological target: ERBB2 (human) (UniProt P04626)
[2] = biological target: BMX (human) (UniProt P51813)
[3] = biological target: TSSK2 (human) (UniProt Q96PF2)
[4] = biological target: MAPKAPK2 (human) (UniProt P49137)
[5] = biological target: STK10 (human) (UniProt O94804)
[6] = biological target: FYN (human) (UniProt P06241)
[7] = biological target: IGF1R (human) (UniProt P08069)
IGF1R (human), sequence (P08069 whole entry, looked up): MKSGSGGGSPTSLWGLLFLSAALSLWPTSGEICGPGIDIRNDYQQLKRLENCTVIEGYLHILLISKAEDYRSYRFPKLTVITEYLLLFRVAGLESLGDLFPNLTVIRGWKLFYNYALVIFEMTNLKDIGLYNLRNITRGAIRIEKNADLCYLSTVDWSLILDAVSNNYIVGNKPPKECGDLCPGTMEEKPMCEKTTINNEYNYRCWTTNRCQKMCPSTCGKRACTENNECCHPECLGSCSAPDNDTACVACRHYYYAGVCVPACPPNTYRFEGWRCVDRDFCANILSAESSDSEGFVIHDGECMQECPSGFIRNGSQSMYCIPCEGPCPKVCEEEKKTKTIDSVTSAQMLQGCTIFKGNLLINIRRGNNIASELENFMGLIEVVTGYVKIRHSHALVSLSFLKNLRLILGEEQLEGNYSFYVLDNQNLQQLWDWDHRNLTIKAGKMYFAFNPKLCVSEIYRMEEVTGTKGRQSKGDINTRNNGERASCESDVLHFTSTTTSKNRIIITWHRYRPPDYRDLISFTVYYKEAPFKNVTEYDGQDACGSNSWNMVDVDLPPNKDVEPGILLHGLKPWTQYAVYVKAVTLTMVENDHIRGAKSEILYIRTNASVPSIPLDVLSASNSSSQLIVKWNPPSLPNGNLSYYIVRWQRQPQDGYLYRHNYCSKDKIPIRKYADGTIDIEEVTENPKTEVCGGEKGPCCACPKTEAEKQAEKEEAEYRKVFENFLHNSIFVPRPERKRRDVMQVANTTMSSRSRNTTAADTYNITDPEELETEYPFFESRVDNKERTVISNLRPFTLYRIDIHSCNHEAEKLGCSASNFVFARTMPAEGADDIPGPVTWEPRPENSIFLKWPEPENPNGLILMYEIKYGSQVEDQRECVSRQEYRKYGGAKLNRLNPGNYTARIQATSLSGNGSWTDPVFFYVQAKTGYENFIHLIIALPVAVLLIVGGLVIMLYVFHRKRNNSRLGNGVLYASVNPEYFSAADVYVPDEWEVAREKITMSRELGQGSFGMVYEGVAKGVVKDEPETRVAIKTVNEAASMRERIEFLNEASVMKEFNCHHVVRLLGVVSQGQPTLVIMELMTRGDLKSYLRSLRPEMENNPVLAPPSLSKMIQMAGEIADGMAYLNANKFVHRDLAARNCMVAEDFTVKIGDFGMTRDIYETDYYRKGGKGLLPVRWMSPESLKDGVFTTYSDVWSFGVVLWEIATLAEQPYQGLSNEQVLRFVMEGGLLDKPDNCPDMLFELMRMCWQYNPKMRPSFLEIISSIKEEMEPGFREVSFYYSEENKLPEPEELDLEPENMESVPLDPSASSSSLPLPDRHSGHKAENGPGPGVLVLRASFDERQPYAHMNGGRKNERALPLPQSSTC

[8] = biological target: WNK2 (human) (UniProt Q9Y3S1)
[9] = biological target: MAPK7 (human) (UniProt Q13164)
[10] = biological target: PRKCA (human) (UniProt P17252)
[11] = biological target: SPHK2 (human) (UniProt Q9NRA0)
SPHK2 (human), sequence (Q9NRA0 whole entry, looked up): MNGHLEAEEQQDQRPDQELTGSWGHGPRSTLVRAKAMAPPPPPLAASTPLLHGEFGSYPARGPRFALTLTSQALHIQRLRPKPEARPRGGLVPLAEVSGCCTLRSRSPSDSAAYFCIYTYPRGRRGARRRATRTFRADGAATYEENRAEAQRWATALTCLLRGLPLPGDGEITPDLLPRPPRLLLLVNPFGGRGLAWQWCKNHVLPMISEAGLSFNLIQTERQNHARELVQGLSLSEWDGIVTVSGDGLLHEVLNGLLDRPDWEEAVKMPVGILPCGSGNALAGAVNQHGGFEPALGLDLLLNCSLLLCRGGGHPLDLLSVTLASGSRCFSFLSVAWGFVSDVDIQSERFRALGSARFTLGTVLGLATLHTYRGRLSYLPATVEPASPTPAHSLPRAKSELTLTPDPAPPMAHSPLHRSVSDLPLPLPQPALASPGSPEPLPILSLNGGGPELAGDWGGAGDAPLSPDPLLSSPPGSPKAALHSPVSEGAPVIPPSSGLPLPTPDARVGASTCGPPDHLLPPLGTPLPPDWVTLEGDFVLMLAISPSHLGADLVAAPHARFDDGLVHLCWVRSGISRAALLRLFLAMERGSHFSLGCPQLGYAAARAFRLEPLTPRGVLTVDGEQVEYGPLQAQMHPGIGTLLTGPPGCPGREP

[12] = biological target: CDK7 (human) (UniProt P50613)
[13] = biological target: PIM1 (human) (UniProt P11309)
PIM1 (human), sequence (P11309 whole entry, looked up): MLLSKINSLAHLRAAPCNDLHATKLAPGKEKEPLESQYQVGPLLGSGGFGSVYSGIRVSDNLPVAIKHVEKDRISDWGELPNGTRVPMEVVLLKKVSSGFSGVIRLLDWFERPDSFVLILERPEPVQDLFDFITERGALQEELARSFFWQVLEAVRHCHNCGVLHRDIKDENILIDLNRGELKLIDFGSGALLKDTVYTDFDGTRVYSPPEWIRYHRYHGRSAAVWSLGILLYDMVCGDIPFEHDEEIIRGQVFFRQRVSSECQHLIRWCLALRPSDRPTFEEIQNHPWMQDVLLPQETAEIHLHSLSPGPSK

[14] = biological target: NEK7 (human) (UniProt Q8TDX7)
NEK7 (human), sequence (Q8TDX7 whole entry, looked up): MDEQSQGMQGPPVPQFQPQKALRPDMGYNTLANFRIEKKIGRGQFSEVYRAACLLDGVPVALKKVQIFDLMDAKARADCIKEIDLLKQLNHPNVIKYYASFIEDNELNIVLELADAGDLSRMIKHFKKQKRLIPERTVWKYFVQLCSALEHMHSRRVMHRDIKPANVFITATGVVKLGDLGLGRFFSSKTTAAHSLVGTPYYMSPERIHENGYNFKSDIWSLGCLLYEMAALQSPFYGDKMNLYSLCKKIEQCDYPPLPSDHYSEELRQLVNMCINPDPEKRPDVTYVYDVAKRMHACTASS

[15] = biological target: NUAK2 (human) (UniProt Q9H093)
[16] = biological target: ITK (human) (UniProt Q08881)
[17] = biological target: EPHB1 (human) (UniProt P54762)
[18] = biological target: YES1 (human) (UniProt P07947)
YES1 (human), sequence (P07947 whole entry, looked up): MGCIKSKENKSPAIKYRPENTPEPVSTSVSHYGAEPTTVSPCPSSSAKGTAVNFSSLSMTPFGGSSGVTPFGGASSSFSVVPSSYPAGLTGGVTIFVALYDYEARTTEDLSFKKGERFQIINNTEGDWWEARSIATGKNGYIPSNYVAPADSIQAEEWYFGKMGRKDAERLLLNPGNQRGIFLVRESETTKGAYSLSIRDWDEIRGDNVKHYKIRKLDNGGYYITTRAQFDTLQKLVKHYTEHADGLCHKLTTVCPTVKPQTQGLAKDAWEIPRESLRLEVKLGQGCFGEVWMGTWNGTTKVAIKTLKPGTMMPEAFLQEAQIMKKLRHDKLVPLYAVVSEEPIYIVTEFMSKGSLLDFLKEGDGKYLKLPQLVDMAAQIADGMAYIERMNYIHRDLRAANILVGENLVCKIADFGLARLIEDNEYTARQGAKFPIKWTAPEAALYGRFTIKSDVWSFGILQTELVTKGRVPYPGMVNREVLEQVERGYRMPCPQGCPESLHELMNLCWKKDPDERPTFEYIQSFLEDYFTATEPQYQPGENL

[19] = biological target: TEK (human) (UniProt Q02763)
[20] = biological target: MELK (human) (UniProt Q14680)
[21] = biological target: MAPK14 (human) (UniProt Q16539)
MAPK14 (human), sequence (Q16539 whole entry, looked up): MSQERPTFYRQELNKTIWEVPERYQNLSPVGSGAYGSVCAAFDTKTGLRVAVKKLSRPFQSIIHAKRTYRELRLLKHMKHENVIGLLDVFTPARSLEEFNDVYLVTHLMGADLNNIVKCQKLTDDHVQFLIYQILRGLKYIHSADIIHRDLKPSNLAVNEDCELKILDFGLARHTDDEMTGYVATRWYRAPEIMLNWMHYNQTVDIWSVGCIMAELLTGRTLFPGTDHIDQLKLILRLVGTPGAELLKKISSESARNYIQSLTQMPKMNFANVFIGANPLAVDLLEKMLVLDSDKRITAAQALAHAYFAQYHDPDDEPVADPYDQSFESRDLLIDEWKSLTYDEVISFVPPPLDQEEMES

[22] = biological target: CDC42BPB (human) (UniProt Q9Y5S2)
[23] = biological target: SRMS (human) (UniProt Q9H3Y6)
[24] = biological target: CDK1 (human) (UniProt P06493)
[25] = biological target: MKNK2 (human) (UniProt Q9HBH9)
[26] = biological target: AKT2 (human) (UniProt P31751)
[27] = biological target: SIK1 (human) (UniProt P57059)
[28] = biological target: FER (human) (UniProt P16591)
[29] = biological target: FGFR3 (human) (UniProt P22607)
[30] = biological target: TSSK1B (human) (UniProt Q9BXA7)
[31] = biological target: MAPK1 (human) (UniProt P28482)
[32] = biological target: PAK7 (human) (UniProt Q9P286)
[33] = biological target: PTK2B (human) (UniProt Q14289)
[34] = biological target: CAMK2A (human) (UniProt Q9UQM7)
CAMK2A (human), sequence (Q9UQM7 whole entry, looked up): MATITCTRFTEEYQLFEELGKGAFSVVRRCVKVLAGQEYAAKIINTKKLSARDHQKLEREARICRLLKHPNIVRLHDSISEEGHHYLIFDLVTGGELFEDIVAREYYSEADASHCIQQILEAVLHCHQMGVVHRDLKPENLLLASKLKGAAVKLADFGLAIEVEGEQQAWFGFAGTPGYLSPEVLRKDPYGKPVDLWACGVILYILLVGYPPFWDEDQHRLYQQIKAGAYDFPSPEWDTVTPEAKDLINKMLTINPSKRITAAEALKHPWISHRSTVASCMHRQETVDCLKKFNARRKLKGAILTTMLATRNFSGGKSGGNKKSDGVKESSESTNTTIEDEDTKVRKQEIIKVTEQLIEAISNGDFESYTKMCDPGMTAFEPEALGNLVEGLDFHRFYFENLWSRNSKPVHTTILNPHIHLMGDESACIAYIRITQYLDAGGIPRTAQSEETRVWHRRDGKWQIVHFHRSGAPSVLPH

[35] = biological target: HIPK2 (human) (UniProt Q9H2X6)

STK10 (human), sequence (O94804 whole entry, looked up): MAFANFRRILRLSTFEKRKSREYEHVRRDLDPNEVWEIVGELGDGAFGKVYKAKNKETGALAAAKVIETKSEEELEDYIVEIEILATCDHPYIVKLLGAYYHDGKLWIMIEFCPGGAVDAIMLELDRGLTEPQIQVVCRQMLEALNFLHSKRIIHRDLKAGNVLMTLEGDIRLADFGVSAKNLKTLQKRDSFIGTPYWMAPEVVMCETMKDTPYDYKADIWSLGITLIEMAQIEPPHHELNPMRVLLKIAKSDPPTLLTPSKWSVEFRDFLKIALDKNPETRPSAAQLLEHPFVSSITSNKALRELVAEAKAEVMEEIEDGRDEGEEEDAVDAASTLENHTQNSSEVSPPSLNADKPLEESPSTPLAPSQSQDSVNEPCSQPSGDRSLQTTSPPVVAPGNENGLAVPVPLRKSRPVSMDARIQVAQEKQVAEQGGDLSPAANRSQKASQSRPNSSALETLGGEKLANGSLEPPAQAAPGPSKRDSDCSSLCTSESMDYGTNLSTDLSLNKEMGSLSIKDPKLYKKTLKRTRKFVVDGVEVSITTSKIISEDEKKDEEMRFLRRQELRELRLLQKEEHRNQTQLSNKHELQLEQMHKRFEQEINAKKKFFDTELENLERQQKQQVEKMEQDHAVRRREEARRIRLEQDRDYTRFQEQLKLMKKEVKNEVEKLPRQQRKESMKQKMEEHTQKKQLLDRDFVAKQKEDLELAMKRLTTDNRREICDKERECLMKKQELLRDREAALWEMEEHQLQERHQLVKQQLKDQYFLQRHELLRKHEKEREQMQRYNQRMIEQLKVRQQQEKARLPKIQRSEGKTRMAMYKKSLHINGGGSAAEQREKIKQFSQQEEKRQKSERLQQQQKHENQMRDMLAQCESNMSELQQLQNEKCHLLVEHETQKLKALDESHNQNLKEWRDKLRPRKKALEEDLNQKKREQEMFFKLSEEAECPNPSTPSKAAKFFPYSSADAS

SMILES: CNC(=O)c1cc(Oc2ccc(NC(=O)Nc3ccc(Cl)c(C(F)(F)F)c3)cc2)ccn1
- inhibition ([1]; compound 0.02 µM): 0.5%
- inhibition ([1]; compound 0.2 µM): -1.7%
- inhibition ([2]; compound 0.02 µM): 0.1%
- inhibition ([2]; compound 0.2 µM): 10.4%
- inhibition ([3]; compound 0.02 µM): -3.9%
- inhibition ([3]; compound 0.2 µM): -2.4%
- inhibition ([4]; compound 0.02 µM): -7.2%
- inhibition ([4]; compound 0.2 µM): -2%
- inhibition ([5]; compound 0.02 µM): 3.3%
- inhibition ([5]; compound 0.2 µM): 36.1%
- inhibition ([6]; compound 0.02 µM): -2.5%
- inhibition ([6]; compound 0.2 µM): 14.5%
- inhibition ([7]; compound 0.02 µM): -1.8%
- inhibition ([7]; compound 0.2 µM): 5%
- inhibition ([8]; compound 0.02 µM): -8.6%
- inhibition ([8]; compound 0.2 µM): 3.6%
- inhibition ([9]; compound 0.02 µM): -9.1%
- inhibition ([9]; compound 0.2 µM): -8.8%
- inhibition ([10]; compound 0.02 µM): 1.2%
- inhibition ([10]; compound 0.2 µM): 12.2%
- inhibition ([11]; compound 0.02 µM): -6%
- inhibition ([11]; compound 0.2 µM): 7.1%
- inhibition ([12]; compound 0.02 µM): -5.5%
- inhibition ([12]; compound 0.2 µM): -7%
- inhibition ([13]; compound 0.02 µM): 1%
- inhibition ([13]; compound 0.2 µM): -3.6%
- inhibition ([14]; compound 0.02 µM): -3.3%
- inhibition ([14]; compound 0.2 µM): -3.3%
- inhibition ([15]; compound 0.02 µM): -6%
- inhibition ([15]; compound 0.2 µM): 2.5%
- inhibition ([16]; compound 0.02 µM): -2.9%
- inhibition ([16]; compound 0.2 µM): 7.5%
- inhibition ([17]; compound 0.02 µM): -1.8%
- inhibition ([17]; compound 0.2 µM): 8.5%
- inhibition ([18]; compound 0.02 µM): -1.9%
- inhibition ([18]; compound 0.2 µM): 17.7%
- inhibition ([19]; compound 0.02 µM): -2.6%
- inhibition ([19]; compound 0.2 µM): 9.5%
- inhibition ([20]; compound 0.02 µM): -4.3%
- inhibition ([20]; compound 0.2 µM): -1.1%
- inhibition ([21]; compound 0.2 µM): 63.8%
- inhibition ([22]; compound 0.02 µM): -3.1%
- inhibition ([22]; compound 0.2 µM): 0.8%
- inhibition ([23]; compound 0.02 µM): -0.4%
- inhibition ([23]; compound 0.2 µM): 4.1%
- inhibition ([24]; compound 0.02 µM): -2%
- inhibition ([24]; compound 0.2 µM): -2%
- inhibition ([25]; compound 0.02 µM): 4.4%
- inhibition ([25]; compound 0.2 µM): 48.3%
- inhibition ([26]; compound 0.02 µM): -9%
- inhibition ([26]; compound 0.2 µM): -8.2%
- inhibition ([27]; compound 0.02 µM): -3.4%
- inhibition ([27]; compound 0.2 µM): 7.3%
- inhibition ([28]; compound 0.02 µM): -1.8%
- inhibition ([28]; compound 0.2 µM): 13.2%
- inhibition ([29]; compound 0.02 µM): 5.5%
- inhibition ([29]; compound 0.2 µM): 51.7%
- inhibition ([30]; compound 0.02 µM): -3.7%
- inhibition ([30]; compound 0.2 µM): -2.9%
- inhibition ([31]; compound 0.02 µM): -3.9%
- inhibition ([31]; compound 0.2 µM): -4.1%
- inhibition ([32]; compound 0.02 µM): -2.5%
- inhibition ([32]; compound 0.2 µM): -1.8%
- inhibition ([33]; compound 0.02 µM): -2.8%
- inhibition ([33]; compound 0.2 µM): -2.7%
- inhibition ([34]; compound 0.02 µM): -2.1%
- inhibition ([34]; compound 0.2 µM): 5.8%

SMILES: Cc1ccc(Nc2nccc(N(C)c3ccc4c(C)n(C)nc4c3)n2)cc1S(N)(=O)=O
- inhibition ([1]; compound 0.02 µM): 0%
- inhibition ([1]; compound 0.2 µM): -1.5%
- inhibition ([2]; compound 0.02 µM): 6.9%
- inhibition ([2]; compound 0.2 µM): 0.9%
- inhibition ([3]; compound 0.02 µM): -4.3%
- inhibition ([3]; compound 0.2 µM): -2.4%
- inhibition ([4]; compound 0.02 µM): 5.5%
- inhibition ([4]; compound 0.2 µM): 1.5%
- inhibition ([5]; compound 0.02 µM): 8.8%
- inhibition ([5]; compound 0.2 µM): 39.2%
- inhibition ([8]; compound 0.02 µM): 1%
- inhibition ([8]; compound 0.2 µM): 4.3%
- inhibition ([9]; compound 0.02 µM): -7.8%
- inhibition ([9]; compound 0.2 µM): -7.6%
- inhibition ([10]; compound 0.02 µM): -0.8%
- inhibition ([10]; compound 0.2 µM): -1%
- inhibition ([11]; compound 0.02 µM): 4.3%
- inhibition ([11]; compound 0.2 µM): -6.2%
- inhibition ([12]; compound 0.02 µM): -1.6%
- inhibition ([12]; compound 0.2 µM): -2.2%
- inhibition ([13]; compound 0.02 µM): -4.2%
- inhibition ([13]; compound 0.2 µM): 0.8%
- inhibition ([35]; compound 0.02 µM): 1.4%
- inhibition ([35]; compound 0.2 µM): 3.3%
- inhibition ([14]; compound 0.02 µM): -2.9%
- inhibition ([14]; compound 0.2 µM): 0%
- inhibition ([15]; compound 0.02 µM): -16.5%
- inhibition ([15]; compound 0.2 µM): 6.3%
- inhibition ([16]; compound 0.02 µM): 7%
- inhibition ([16]; compound 0.2 µM): 2%
- inhibition ([17]; compound 0.02 µM): -1%
- inhibition ([17]; compound 0.2 µM): -1.6%
- inhibition ([18]; compound 0.02 µM): 13.3%
- inhibition ([18]; compound 0.2 µM): 44.3%
- inhibition ([19]; compound 0.02 µM): -4.6%
- inhibition ([19]; compound 0.2 µM): 2.7%
- inhibition ([20]; compound 0.02 µM): 8.1%
- inhibition ([20]; compound 0.2 µM): 12.4%
- inhibition ([21]; compound 0.02 µM): -9%
- inhibition ([21]; compound 0.2 µM): -2.5%
- inhibition ([22]; compound 0.02 µM): 1.8%
- inhibition ([22]; compound 0.2 µM): 2.9%
- inhibition ([23]; compound 0.02 µM): 1.1%
- inhibition ([23]; compound 0.2 µM): 25.2%
- inhibition ([24]; compound 0.02 µM): -2.9%
- inhibition ([24]; compound 0.2 µM): -1.5%
- inhibition ([25]; compound 0.02 µM): 2.7%
- inhibition ([25]; compound 0.2 µM): 1.5%
- inhibition ([26]; compound 0.02 µM): 4.7%
- inhibition ([26]; compound 0.2 µM): 3%
- inhibition ([27]; compound 0.02 µM): -3%
- inhibition ([27]; compound 0.2 µM): 0%
- inhibition ([28]; compound 0.02 µM): 15.1%
- inhibition ([28]; compound 0.2 µM): 40.1%
- inhibition ([29]; compound 0.02 µM): 21.3%
- inhibition ([29]; compound 0.2 µM): 68.5%
- inhibition ([30]; compound 0.02 µM): -1.1%
- inhibition ([30]; compound 0.2 µM): -1.7%
- inhibition ([31]; compound 0.02 µM): -10.8%
- inhibition ([31]; compound 0.2 µM): -6.6%
- inhibition ([32]; compound 0.02 µM): 9%
- inhibition ([32]; compound 0.2 µM): 1.3%
- inhibition ([33]; compound 0.02 µM): -0.4%
- inhibition ([33]; compound 0.2 µM): 9.7%
- inhibition ([34]; compound 0.02 µM): 5.3%
- inhibition ([34]; compound 0.2 µM): 5.1%

SMILES: CCN(CC)CCNC(=O)c1c(C)[nH]c(/C=C2\C(=O)Nc3ccc(F)cc32)c1C
- inhibition ([1]; compound 0.2 µM): -3.2%
- inhibition ([1]; compound 4.0 µM): -2.9%
- inhibition ([2]; compound 0.2 µM): -0.5%
- inhibition ([2]; compound 4.0 µM): 22.4%
- inhibition ([3]; compound 0.2 µM): -0.6%
- inhibition ([3]; compound 4.0 µM): 35.3%
- inhibition ([4]; compound 0.2 µM): 4%
- inhibition ([4]; compound 4.0 µM): 5.5%
- inhibition ([5]; compound 0.2 µM): 62.1%
- inhibition ([6]; compound 0.2 µM): 45.3%
- inhibition ([6]; compound 4.0 µM): 93.3%
- inhibition ([7]; compound 0.2 µM): 40.1%
- inhibition ([7]; compound 4.0 µM): 93%
- inhibition ([8]; compound 0.2 µM): 1.7%
- inhibition ([8]; compound 4.0 µM): -2.1%
- inhibition ([9]; compound 0.2 µM): -5.7%
- inhibition ([9]; compound 4.0 µM): 28.8%
- inhibition ([10]; compound 0.2 µM): 0.1%
- inhibition ([10]; compound 4.0 µM): 28.7%
- inhibition ([11]; compound 0.2 µM): -6.9%
- inhibition ([11]; compound 4.0 µM): 4.7%
- inhibition ([12]; compound 0.2 µM): 87.6%
- inhibition ([12]; compound 4.0 µM): 98.8%
- inhibition ([13]; compound 0.2 µM): -0.2%
- inhibition ([13]; compound 4.0 µM): 19.2%
- inhibition ([35]; compound 0.2 µM): 74.2%
- inhibition ([35]; compound 4.0 µM): 99.3%
- inhibition ([14]; compound 0.2 µM): -1.4%
- inhibition ([14]; compound 4.0 µM): -5.6%
- inhibition ([15]; compound 0.2 µM): 55.7%
- inhibition ([15]; compound 4.0 µM): 95.3%
- inhibition ([16]; compound 0.2 µM): 93.3%
- inhibition ([16]; compound 4.0 µM): 101%
- inhibition ([17]; compound 0.2 µM): 34.5%
- inhibition ([17]; compound 4.0 µM): 89%
- inhibition ([18]; compound 0.2 µM): 96.9%
- inhibition ([18]; compound 4.0 µM): 101%
- inhibition ([19]; compound 0.2 µM): -3.6%
- inhibition ([19]; compound 4.0 µM): 15.3%
- inhibition ([20]; compound 0.2 µM): 80%
- inhibition ([20]; compound 4.0 µM): 99.2%
- inhibition ([21]; compound 0.2 µM): -6.9%
- inhibition ([21]; compound 4.0 µM): -20.4%
- inhibition ([22]; compound 0.2 µM): -0.5%
- inhibition ([22]; compound 4.0 µM): 14.2%
- inhibition ([23]; compound 0.2 µM): -0.6%
- inhibition ([23]; compound 4.0 µM): 24%
- inhibition ([24]; compound 0.2 µM): -3%
- inhibition ([24]; compound 4.0 µM): 16%
- inhibition ([25]; compound 0.2 µM): 3.2%
- inhibition ([25]; compound 4.0 µM): 28%
- inhibition ([27]; compound 0.2 µM): 15%
- inhibition ([27]; compound 4.0 µM): 76.1%
- inhibition ([28]; compound 0.2 µM): 78.8%
- inhibition ([28]; compound 4.0 µM): 102%
- inhibition ([29]; compound 0.2 µM): 75%
- inhibition ([29]; compound 4.0 µM): 98.4%
- inhibition ([30]; compound 0.2 µM): 63.2%
- inhibition ([30]; compound 4.0 µM): 95.5%
- inhibition ([31]; compound 0.2 µM): -7.5%
- inhibition ([31]; compound 4.0 µM): -1.7%
- inhibition ([32]; compound 0.2 µM): 20.1%
- inhibition ([32]; compound 4.0 µM): 77.7%
- inhibition ([33]; compound 0.2 µM): 72.4%
- inhibition ([33]; compound 4.0 µM): 101%
- inhibition ([34]; compound 0.2 µM): 24.5%
- inhibition ([34]; compound 4.0 µM): 89%
